Experimental data published in patent publication US11969428B2, “Methods and pharmaceutical compositions for treating lymphoid malignancy” (priority 2011, dated 2024).

Columns and labels:
Test in all cases: Ambit KinomeScan screening
Format in all cases: binding
Conditions in all cases: CAL-130 10 μM
MAP4K2 = target: T1, MAP4K2 (Homo sapiens, UniProt Q12851)
T1 construct: Ambit (KinomeScan screening)
Outline: (§1)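 Displacement of tagged kinase from bait ligand on solid support was assessed using 10 μM CAL-130. Each value is the fraction of control binding retained, expressed in percent; a cutoff of >35% defines no hit.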

TRKC = target: T2, TRKC (Homo sapiens, UniProt Q16288)
T2 construct: tag, kind not specified; purchased Ambit (KinomeScan screening service)
Outline: as §1

CDK5 = target: T3, CDK5 (Homo sapiens, UniProt Q00535)
T3 construct: purchased Ambit (KinomeScan screening)
Outline: as §1

AKT2 = target: T4, AKT2 (Homo sapiens, UniProt P31751)
T4 construct: purchased Ambit (KinomeScan screening)
Outline: as §1

TYK2(JH1domain) = target: T5, TYK2(JH1domain) (Homo sapiens, UniProt P29597)
T5 construct: TYK2(JH1domain); tag, kind not specified; purchased Ambit (KinomeScan screening service)
Outline: as §1

BLK = target: T6, BLK (Homo sapiens, UniProt P51451)
T6 construct: purchased Ambit (KinomeScan screening service)
Outline: as §1

EPHB3 = target: T7, EPHB3 (Homo sapiens, UniProt P54753)
T7 construct: purchased Ambit (KinomeScan screening service)
Outline: as §1

MST1R = target: T8, MST1R (Homo sapiens, UniProt Q04912)
T8 construct: unspecified tag ('tagged kinases'); purchased Ambit (KinomeScan screening)
Outline: as §1

PRKD2 = target: T9, PRKD2 (Homo sapiens, UniProt Q9BZL6)
T9 construct: purchased Ambit (KinomeScan screening service)
Outline: as §1

MLK2 = target: T10, MLK2 (Homo sapiens, UniProt Q02779)
T10 construct: unspecified tag ('tagged kinases'); purchased Ambit (KinomeScan screening)
Outline: as §1

PIM1 = target: T11, PIM1 (Homo sapiens, UniProt P11309)
T11 construct: unspecified tag; purchased Ambit (KinomeScan screening panel)
Outline: as §1

KIT(D816V) = target: T12, KIT(D816V) (Homo sapiens, UniProt P10721, D816V)
T12 construct: purchased Ambit (KinomeScan screening)
Outline: as §1

HIPK2 = target: T13, HIPK2 (Homo sapiens, UniProt Q9H2X6)
T13 construct: unspecified tag ('tagged kinases'); purchased Ambit (KinomeScan screening service)
Outline: as §1

EPHB4 = target: T14, EPHB4 (Homo sapiens, UniProt P54760)
T14 construct: purchased Ambit (KinomeScan screening service)
Outline: as §1

CDC2L2 = target: T15, CDC2L2 (Homo sapiens, UniProt Q9UQ88)
T15 construct: purchased Ambit (KinomeScan screening)
Outline: as §1

PIP5K1A = target: T16, PIP5K1A (Homo sapiens, UniProt Q99755)
T16 construct: unspecified tag; purchased Ambit (KinomeScan screening panel)
Outline: as §1

MEK1 = target: T17, MEK1 (Homo sapiens, UniProt Q02750)
T17 construct: purchased Ambit (KinomeScan screening)
Outline: as §1

CSNK1D = target: T18, CSNK1D (Homo sapiens, UniProt P48730)
T18 construct: purchased Ambit (KinomeScan screening service)
Outline: as §1

CDK3 = target: T19, CDK3 (Homo sapiens, UniProt Q00526)
T19 construct: purchased Ambit (KinomeScan screening)
Outline: as §1

DAPK2 = target: T20, DAPK2 (Homo sapiens, UniProt Q9UIK4)
T20 construct: purchased Ambit (KinomeScan screening service)
Outline: as §1

CAMKK1 = target: T21, CAMKK1 (Homo sapiens, UniProt Q8N5S9)
T21 construct: purchased Ambit (KinomeScan screening)
Outline: as §1

CAMK1 = target: T22, CAMK1 (Homo sapiens, UniProt Q14012)
T22 construct: unspecified tag ("tagged kinases"); purchased Ambit (KinomeScan screening)
Outline: as §1

PIK4CB = target: T23, PIK4CB (Homo sapiens, UniProt Q9UBF8)
T23 construct: unspecified tag; purchased Ambit (KinomeScan screening panel)
Outline: as §1

TNK2 = target: T24, TNK2 (Homo sapiens, UniProt Q07912)
T24 construct: unspecified tag (tagged kinase); purchased Ambit (KinomeScan screening)
Outline: as §1

JNK1 = target: T25, JNK1 (Homo sapiens, UniProt P45983)
T25 construct: purchased Ambit (KinomeScan screening)
Outline: as §1

PRKCD = target: T26, PRKCD (Homo sapiens, UniProt Q05655)
T26 construct: purchased Ambit (KinomeScan screening service)
Outline: as §1

RIOK3 = target: T27, RIOK3 (Homo sapiens, UniProt O14730)
T27 construct: unspecified tag (tagged kinase); purchased Ambit (KinomeScan screening)
Outline: as §1

TLK1 = target: T28, TLK1 (Homo sapiens, UniProt Q9UKI8)
T28 construct: unspecified tag (tagged kinase); purchased Ambit (KinomeScan screening)
Outline: as §1

PHKG2 = target: T29, PHKG2 (Homo sapiens, UniProt P15735)
T29 construct: unspecified tag ('tagged kinases'); purchased Ambit (KinomeScan screening)
Outline: as §1

AKT1 = target: T30, AKT1 (Homo sapiens, UniProt P31749)
T30 construct: purchased Ambit (KinomeScan screening)
Outline: as §1

CAMK2B = target: T31, CAMK2B (Homo sapiens, UniProt Q13554)
T31 construct: purchased Ambit (KinomeScan screening)
Outline: as §1

MYO3B = target: T32, MYO3B (Homo sapiens, UniProt Q8WXR4)
T32 construct: unspecified tag; purchased Ambit (KinomeScan screening panel)
Outline: as §1

FLT3(D835Y) = target: T33, FLT3(D835Y) (Homo sapiens, UniProt P36888, D835Y)
T33 construct: unspecified tag; purchased Ambit (KinomeScan screening service)
Outline: as §1

IKK-[…] = target: T34, IKK-[…] (Homo sapiens, UniProt Q14164)
T34 construct: Ambit (KinomeScan screening)
Outline: as §1

DYRK1B = target: T35, DYRK1B (Homo sapiens, UniProt Q9Y463)
T35 construct: unspecified tag ("tagged kinases"); purchased Ambit (KinomeScan screening service)
Outline: as §1

RIPK1 = target: T36, RIPK1 (Homo sapiens, UniProt Q13546)
T36 construct: unspecified tag (tagged kinase); purchased Ambit (KinomeScan screening)
Outline: as §1

Measured: Percent of Control Binding

T10 sequence (Q02779 whole entry): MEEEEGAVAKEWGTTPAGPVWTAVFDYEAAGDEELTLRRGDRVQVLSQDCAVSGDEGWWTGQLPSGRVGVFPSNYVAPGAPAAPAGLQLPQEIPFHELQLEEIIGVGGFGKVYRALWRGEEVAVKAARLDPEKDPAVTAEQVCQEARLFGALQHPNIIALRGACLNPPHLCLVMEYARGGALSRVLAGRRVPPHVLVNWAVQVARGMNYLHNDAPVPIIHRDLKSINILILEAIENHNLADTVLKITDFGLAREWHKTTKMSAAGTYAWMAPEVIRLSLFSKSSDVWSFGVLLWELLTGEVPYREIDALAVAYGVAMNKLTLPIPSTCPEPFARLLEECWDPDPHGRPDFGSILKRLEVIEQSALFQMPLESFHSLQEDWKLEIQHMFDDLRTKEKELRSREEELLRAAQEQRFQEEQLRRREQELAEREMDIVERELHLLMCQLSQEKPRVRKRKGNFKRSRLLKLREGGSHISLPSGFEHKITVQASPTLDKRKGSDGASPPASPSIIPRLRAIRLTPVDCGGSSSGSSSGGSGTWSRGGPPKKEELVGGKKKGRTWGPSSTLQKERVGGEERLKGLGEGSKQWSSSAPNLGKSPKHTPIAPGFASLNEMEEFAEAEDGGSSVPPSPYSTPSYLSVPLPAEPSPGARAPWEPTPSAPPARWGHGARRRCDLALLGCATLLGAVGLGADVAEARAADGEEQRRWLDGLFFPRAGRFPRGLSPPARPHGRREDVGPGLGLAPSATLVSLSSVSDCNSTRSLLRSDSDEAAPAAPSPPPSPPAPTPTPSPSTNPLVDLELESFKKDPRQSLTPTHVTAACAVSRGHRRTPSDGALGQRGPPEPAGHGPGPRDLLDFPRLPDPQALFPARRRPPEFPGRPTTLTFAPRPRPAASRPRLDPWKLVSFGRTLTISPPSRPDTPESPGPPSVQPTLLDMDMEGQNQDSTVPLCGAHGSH
T13 sequence (Q9H2X6 whole entry): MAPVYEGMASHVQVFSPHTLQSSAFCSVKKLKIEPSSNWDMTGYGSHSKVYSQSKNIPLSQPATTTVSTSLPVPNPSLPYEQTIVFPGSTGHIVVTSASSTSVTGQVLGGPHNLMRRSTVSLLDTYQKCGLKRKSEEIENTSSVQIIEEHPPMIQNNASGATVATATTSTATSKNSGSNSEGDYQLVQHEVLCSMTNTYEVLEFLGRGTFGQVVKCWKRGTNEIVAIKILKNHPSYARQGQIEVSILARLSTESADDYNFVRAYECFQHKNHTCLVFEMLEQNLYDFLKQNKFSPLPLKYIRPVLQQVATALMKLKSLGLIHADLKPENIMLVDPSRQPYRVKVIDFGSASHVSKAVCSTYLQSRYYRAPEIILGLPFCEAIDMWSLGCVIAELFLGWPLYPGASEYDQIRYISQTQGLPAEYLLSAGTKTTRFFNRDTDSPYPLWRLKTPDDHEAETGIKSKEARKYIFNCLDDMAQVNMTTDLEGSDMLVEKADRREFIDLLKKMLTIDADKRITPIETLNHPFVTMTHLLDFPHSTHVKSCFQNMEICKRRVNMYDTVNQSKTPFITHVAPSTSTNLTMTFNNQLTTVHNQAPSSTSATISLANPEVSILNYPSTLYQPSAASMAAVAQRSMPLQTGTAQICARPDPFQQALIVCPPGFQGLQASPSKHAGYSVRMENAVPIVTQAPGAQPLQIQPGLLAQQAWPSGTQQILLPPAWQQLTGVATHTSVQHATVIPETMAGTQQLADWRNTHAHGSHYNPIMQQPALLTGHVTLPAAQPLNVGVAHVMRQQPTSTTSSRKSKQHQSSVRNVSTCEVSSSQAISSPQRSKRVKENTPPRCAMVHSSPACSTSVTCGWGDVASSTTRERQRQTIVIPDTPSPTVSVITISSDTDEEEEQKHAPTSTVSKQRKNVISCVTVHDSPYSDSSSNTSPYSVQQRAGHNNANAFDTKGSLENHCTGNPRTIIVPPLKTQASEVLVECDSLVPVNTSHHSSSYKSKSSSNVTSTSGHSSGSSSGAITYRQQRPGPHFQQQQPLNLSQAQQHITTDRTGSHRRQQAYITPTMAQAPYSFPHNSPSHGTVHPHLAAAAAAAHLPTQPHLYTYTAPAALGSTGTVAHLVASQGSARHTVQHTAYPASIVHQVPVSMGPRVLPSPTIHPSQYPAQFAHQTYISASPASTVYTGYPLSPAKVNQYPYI
T34 sequence (Q14164 whole entry): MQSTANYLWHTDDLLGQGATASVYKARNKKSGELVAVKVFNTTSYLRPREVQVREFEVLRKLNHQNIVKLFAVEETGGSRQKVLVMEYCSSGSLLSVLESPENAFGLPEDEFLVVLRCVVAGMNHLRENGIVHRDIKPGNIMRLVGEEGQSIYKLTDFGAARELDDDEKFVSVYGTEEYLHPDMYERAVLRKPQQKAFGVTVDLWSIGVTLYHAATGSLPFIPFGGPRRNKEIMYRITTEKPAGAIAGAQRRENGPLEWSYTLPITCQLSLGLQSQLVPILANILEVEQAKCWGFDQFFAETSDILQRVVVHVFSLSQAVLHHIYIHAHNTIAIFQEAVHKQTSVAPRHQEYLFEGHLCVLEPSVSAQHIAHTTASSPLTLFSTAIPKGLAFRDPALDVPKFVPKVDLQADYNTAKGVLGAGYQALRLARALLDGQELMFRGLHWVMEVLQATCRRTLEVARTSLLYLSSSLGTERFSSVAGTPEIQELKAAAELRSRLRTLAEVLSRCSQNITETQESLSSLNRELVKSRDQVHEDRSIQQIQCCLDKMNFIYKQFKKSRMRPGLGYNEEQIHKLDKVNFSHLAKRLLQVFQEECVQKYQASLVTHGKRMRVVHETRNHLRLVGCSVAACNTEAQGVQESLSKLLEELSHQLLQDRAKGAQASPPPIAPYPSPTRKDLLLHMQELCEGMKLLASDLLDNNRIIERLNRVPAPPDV
T27 sequence (O14730 whole entry): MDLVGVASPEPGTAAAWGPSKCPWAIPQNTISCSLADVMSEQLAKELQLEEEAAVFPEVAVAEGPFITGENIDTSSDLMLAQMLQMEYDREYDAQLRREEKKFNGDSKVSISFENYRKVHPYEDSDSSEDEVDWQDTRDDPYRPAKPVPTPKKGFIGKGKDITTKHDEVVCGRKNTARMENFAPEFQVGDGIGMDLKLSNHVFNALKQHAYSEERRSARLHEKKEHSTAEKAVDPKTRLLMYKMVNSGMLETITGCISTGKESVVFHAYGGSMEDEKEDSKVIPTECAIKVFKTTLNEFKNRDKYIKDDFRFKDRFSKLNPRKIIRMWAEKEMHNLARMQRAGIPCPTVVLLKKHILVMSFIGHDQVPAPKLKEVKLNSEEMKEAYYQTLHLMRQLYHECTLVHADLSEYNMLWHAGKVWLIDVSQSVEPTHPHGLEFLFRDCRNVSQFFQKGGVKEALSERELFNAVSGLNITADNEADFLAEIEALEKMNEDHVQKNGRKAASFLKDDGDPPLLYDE
T5 sequence (P29597 897-1176 limits assumed): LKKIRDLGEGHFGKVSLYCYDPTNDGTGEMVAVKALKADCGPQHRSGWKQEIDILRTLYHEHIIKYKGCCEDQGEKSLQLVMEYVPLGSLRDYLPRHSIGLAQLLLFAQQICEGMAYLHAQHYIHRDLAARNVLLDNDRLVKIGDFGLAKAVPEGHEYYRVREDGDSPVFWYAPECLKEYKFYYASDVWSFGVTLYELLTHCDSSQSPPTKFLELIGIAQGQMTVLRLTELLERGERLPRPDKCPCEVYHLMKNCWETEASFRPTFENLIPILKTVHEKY
T20 sequence (Q9UIK4 whole entry): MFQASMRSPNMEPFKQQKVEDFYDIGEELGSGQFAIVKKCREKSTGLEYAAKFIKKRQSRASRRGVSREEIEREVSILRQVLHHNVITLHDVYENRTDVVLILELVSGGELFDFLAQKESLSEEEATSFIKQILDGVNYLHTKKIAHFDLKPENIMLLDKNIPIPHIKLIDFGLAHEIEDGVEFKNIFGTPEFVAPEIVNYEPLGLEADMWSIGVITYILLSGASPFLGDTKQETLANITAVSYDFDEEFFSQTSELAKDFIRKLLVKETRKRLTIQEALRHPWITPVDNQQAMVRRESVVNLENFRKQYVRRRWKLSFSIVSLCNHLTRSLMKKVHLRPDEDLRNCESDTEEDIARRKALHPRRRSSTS
T26 sequence (Q05655 whole entry): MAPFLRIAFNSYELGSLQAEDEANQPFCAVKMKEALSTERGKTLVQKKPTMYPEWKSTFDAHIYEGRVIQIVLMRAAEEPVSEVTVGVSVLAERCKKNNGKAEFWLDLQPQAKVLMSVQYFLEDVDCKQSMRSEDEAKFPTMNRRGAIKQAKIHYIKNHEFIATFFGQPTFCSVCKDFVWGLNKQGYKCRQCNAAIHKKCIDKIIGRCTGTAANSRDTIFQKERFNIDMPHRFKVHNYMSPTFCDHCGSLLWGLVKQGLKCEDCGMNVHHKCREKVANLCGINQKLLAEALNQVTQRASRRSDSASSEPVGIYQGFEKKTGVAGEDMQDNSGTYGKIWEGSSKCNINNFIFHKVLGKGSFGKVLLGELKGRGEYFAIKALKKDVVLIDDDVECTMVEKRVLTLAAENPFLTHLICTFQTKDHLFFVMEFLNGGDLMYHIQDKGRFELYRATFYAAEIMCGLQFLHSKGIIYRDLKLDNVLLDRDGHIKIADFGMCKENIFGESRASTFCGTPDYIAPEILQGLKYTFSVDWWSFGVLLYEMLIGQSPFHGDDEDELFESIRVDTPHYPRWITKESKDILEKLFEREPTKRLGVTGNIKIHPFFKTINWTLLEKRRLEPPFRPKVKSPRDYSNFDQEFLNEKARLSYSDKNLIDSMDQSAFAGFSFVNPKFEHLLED
T3 sequence (Q00535 whole entry): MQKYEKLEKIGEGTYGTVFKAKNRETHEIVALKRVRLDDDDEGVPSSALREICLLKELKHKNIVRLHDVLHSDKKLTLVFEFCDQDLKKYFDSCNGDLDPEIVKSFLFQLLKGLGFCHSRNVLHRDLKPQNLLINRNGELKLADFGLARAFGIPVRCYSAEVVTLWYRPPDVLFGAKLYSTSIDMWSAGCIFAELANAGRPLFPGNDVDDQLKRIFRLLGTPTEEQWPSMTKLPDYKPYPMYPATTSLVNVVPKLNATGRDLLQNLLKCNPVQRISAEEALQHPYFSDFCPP

Cc1ccccc1-n1c(C(C)Nc2nc(N)nc3nc[nH]c23)nc2cccc(C)c2c1=O (stereo not drawn) [CAL-130]
100%: all assays above
